Columns and labels:
hCA II = hCA II (Homo sapiens, UniProt P00918); assay: stopped flow carbon dioxide hydrase assay, hCA II
hCA IX = hCA IX (Homo sapiens, UniProt Q16790); assay: stopped flow carbon dioxide hydrase assay, hCA IX; conditions: for Selectivity ratio I/IX: hCA IX over hCA I; for Selectivity ratio II/IX: hCA IX over hCA II
hCA XII = hCA XII (Homo sapiens, UniProt O43570); assay: stopped flow carbon dioxide hydrase assay, hCA XII; conditions: for Selectivity ratio I/XII: hCA XII over hCA I; for Selectivity ratio II/XII: hCA XII over hCA II
Sequence of hCA XII (O43570 25-354): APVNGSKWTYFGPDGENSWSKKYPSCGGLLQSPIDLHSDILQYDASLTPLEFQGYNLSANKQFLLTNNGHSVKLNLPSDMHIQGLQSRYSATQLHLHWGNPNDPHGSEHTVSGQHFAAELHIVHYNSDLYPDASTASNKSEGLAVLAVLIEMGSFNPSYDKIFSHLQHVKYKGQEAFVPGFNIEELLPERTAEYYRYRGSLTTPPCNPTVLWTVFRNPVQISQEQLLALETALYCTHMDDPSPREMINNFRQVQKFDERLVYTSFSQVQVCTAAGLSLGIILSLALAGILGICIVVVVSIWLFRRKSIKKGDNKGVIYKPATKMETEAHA

hCA I = hCA I (Homo sapiens, UniProt P00915); assay: stopped flow carbon dioxide hydrase assay, hCA I
Sequence of hCA I (P00915 whole entry): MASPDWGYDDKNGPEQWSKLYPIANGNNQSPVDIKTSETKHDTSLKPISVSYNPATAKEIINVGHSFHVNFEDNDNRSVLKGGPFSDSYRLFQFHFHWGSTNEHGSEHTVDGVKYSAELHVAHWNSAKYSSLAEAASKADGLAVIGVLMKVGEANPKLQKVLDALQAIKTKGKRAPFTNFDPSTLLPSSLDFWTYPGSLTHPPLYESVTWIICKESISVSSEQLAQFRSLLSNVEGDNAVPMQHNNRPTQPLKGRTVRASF

MCF-7 = assay: 72 h MTT anti-proliferative assay under hypoxic conditions, MCF-7; format: cell-based; conditions: Homo sapiens, MCF7, mean ± S.D. of three experiments
Experimental: Therefore, QBS 11c and 13b were further screened for their potential in vitro anti-proliferative action against two breast cancer cell lines (MDA-MB-231 and MCF-7) under hypoxic conditions, exploiting a 72 h MTT assay protocol and using Doxorubicin as a positive control drug.
All adopted procedures for the conducted in vitro biological assays were performed as described earlier; CA (stopped-flow), cytotoxicity (MTT [37, 38]), and assessment of apoptotic markers assays, as well as induction of hypoxia with cobalt chloride, and were mentioned in the Supporting Materials.
(§1) 1. Carbonic anhydrase inhibition assay
16) herein reported have were assayed utilizing an instrument of Applied Photophysics stopped-flow. The enzymes are recombinant proteins prepared in our lab. Phenol red (at a concentration of 0.2 mM) has been used as indicator, working at the absorbance maximum of 557 nm, with 20 mM Hepes (pH 7.5) as buffer, and 20 mM Na2SO4 (for maintaining constant the ionic strength), […]
parameters and inhibition constants. For each inhibitor at least six traces of the initial 5-10% of the reaction have been used for determining the initial velocity . Th e un cat aly zed rates were determined in the same manner and subtracted from the total observed rates. Stock solutions of inhibitor (0.1 mM) were prepared in distilled-deionized water and dilutions up to 0.01 nM were done thereafter with the assay buffer. Inhibitor and enzyme solutions were preincubated together for 15 min at room temperature prior to assay, in order to allow fo r the formation of the E-I complex. […]
Cells were sub-cultured with try psine /EDTA solution, counted with haemocy tometer and plated onto 96-well plates (5000 cells/well) and left overnight to form a semi-confluent […]
monolay er. […] DMSO (100 µl/well) was added to dissolve the formazan crystals with shaking for 10 min after which the absorbance was read at 590 nm against no cell blanks on a FLuo Star Optima microplate reader (BMG technologies, Germany). Cell proliferation was calculated comparing the OD values of the DMSO control wells and those of the samples

MDA-MB-231 = assay: 72 h MTT anti-proliferative assay under hypoxic conditions, MDA-MB-231; format: cell-based; conditions: Homo sapiens, mean ± S.D. of three experiments
Source text: as §1
The enzymes are recombinant proteins prepared in our lab.
parameters and inhibition constants.
2. Anti-proliferative action toward human breast cell lines

Structure (SMILES)	melting point	Ki (hCA II)	Ki (hCA IX)	Selectivity ratio I/IX (hCA IX)	Selectivity ratio II/IX (hCA IX)	Ki (hCA XII)	Selectivity ratio I/XII (hCA XII)	Selectivity ratio II/XII (hCA XII)	Ki (hCA I)	IC50 (MCF-7)	IC50 (MDA-MB-231)
NS(=O)(=O)c1cccc(Nc2ccnc3cc(C(F)(F)F)cc(C(F)(F)F)c23)c1 [11d, 3-((5,7-bis(trifluoromethyl)quinolin-4-yl)amino)benzenesulfonamide]	172 to 174 °C	221 nM	52.9 nM	2.0	4.2	34 nM	3.1	6.5	105 nM		
COc1ccc2nccc(Nc3ccc(C)c(S(N)(=O)=O)c3)c2c1 [11f, 5-((6-methoxyquinolin-4-yl)amino)-2-methylbenzenesulfonamide]	248 to 250 °C	998 nM	853 nM	2.6	1.2	152 nM	14.8	6.6	2260 nM		
Cc1ccc2nccc(Nc3ccc(C)c(S(N)(=O)=O)c3)c2c1 [11e, 2-methyl-5-((6-methylquinolin-4-yl)amino)benzenesulfonamide]	280 to 282 °C	1500 nM	104 nM	33.8	14.5	88.1 nM	39.7	17.1	3500 nM		
COc1ccc2nccc(Nc3cccc(S(N)(=O)=O)c3)c2c1 [11b, 3-((6-methoxyquinolin-4-yl)amino)benzenesulfonamide]	244 to 246 °C	366 nM	86.5 nM	3.0	4.2	73.1 nM	3.5	5.0	258 nM		
Cc1ccc(Nc2ccnc3ccc(Cl)cc23)cc1S(N)(=O)=O [11g, 5-((6-chloroquinolin-4-yl)amino)-2-methylbenzenesulfonamide]	282 to 285 °C	2360 nM	116 nM	38.9	20.3	92.7 nM	48.8	25.4	4520 nM		
COc1cccc2c1C(=O)c1c(O)c3c(c(O)c1C2=O)C[C@@](O)(C(=O)CO)C[C@@H]3O[C@H]1C[C@H](N)[C@H](O)[C@H](C)O1 [Doxorubicin, reference compound]										3.04 ± 0.14 µM	1670 ± 80 nM
Cc1ccc2nccc(Nc3cccc(S(N)(=O)=O)c3)c2c1 [11a, 3-((6-methylquinolin-4-yl)amino)benzenesulfonamide]	272 to 274 °C	265 nM	70.1 nM	9.5	3.8	41.2 nM	16.1	6.4	663 nM		

Further compounds by falling Ki (hCA II), results first:

melting point	Ki (hCA II)	Ki (hCA IX)	Selectivity ratio I/IX (hCA IX)	Selectivity ratio II/IX (hCA IX)	Ki (hCA XII)	Selectivity ratio I/XII (hCA XII)	Selectivity ratio II/XII (hCA XII)	Ki (hCA I)	Structure (SMILES)	IC50 (MCF-7)	IC50 (MDA-MB-231)
	112 nM							1560 nM	NS(=O)(=O)c1ccccc1Nc1ccnc2cc(C(F)(F)F)cc(C(F)(F)F)c12 [9d, 2-((5,7-bis(trifluoromethyl)quinolin-4-yl)amino)benzenesulfonamide]		
258 to 260 °C	86.8 nM	65.6 nM	18.9	1.3	38.4 nM	32.3	2.3	1240 nM	NS(=O)(=O)c1ccccc1Nc1ccnc2ccc(Cl)cc12 [9c, 2-((6-chloroquinolin-4-yl)amino)benzenesulfonamide]		
264 to 265 °C	78.4 nM	36.4 nM	15.3	2.2	22.8 nM	24.5	3.4	558 nM	Cc1ccc2nccc(Nc3ccccc3S(N)(=O)=O)c2c1 [9a, 2-((6-methylquinolin-4-yl)amino)benzenesulfonamide]		
275 to 277 °C	49.7 nM	39.2 nM	22.1	1.3	42.1 nM	20.5	1.2	864 nM	COc1ccc2nccc(Nc3ccccc3S(N)(=O)=O)c2c1 [9b, 2-((6-methoxyquinolin-4-yl)amino)benzenesulfonamide]		
270 to 272 °C	36.5 nM	25.8 nM	3.0	1.4	9.8 nM	8.0	3.7	78.4 nM	Cc1ccc2nccc(Nc3ccc(S(N)(=O)=O)cc3)c2c1 [13a, 4-((6-methylquinolin-4-yl)amino)benzenesulfonamide]		
228 to 230 °C	31.1 nM	21.7 nM	3.8	1.4	25.4 nM	3.2	1.2	81.4 nM	COc1ccc2nccc(NNC(=O)c3ccc(S(N)(=O)=O)cc3)c2c1 [compound 16, 4-(2-(6-Methoxyquinolin-4-yl)hydrazine-1-carbonyl)benzenesulfonamide]		
284 to 286 °C	7.3 nM	18.6 nM	3.0	0.4	8.7 nM	6.4	0.8	55.4 nM	NS(=O)(=O)c1ccc(Nc2ccnc3ccc(Cl)cc23)cc1 [13c, 4-((6-chloroquinolin-4-yl)amino)benzenesulfonamide]		

— paper PMC8541628, “Development of Novel Quinoline-Based Sulfonamides as Selective Cancer-Associated Carbonic Anhydrase Isoform IX Inhibitors” (International Journal of Molecular Sciences, 2021)
